Values of other authors as cited in patent publication US20120141434A1, “Methods for Selecting Expanded Stem Cell Populations” (Gamida Cell Ltd., priority 2009, published 2012).

Legend:
[1] = system: cord blood-derived progenitor cells; conditions: three-week treatment of cord blood cultures supplemented with early acting cytokines
NOD/SCID mice = conditions: TEPA treated cultures compared to untreated cultures

## NCCNCCNCCNCCN [TEPA, tetraethylenepentamine]
[1]
  ex vivo expansion of CD34+ cells: prolonged and extensive
  percentages of early progenitors (CD34+CD38−, CD34+CD38−Lin-): higher
NOD/SCID mice
  engraftment potential in NOD/SCID mice: increased
